Assays:
[1] = target: T1, RyR1 (Sus scrofa, UniProt P16960); assay: FLT-FRET between D-FKBP and A-CaM bound to RyR1 in skeletal SR membranes (HTS and dose-response); format: binding, porcine; parameters: RyR1 in skeletal SR membranes, and RyR2 in cardiac SR membranes; from tissue; host or cells: porcine longissimus dorsi muscle (heavy SR vesicles); settings: for Hit in primary FLT-FRET HTS of LOPAC (FRET altered by > 4 SD vs DMSO): 10 μM compound, 2-hour incubation, 5 mM GSSG, 0.3 μM A-CaM, 1536-well; for Influence of GSSG vs GSH on the FRET dose-response effect: 5 mM GSSG vs 5 mM GSH; for Effect on FRET: biphasic dose-response, isoform not stated
Protocol: To confer compatibility with current HTS standards in industrial drug discovery facilities, we miniaturized our screening format from the previously established 384-well plates, requiring 50 μL sample per well[19], to 1536-well plates, requiring 5 μL sample per well. The complete 1280-compound library of pharmacologically active compounds (LOPAC) was applied as 5 nL/well in 40 columns of one 1536-well black-wall/black-bottom plate, with the remaining 8 columns loaded with 5 nL/well of DMSO, as no-drug controls. For each run of the screen, three plates were loaded with either (1) unlabeled HSR, or (2) HSR pre-incubated with donor-FKBP (D-FKBP; donor-only sample), or (3) donor-only sample that was additionally incubated with 0.3 μM acceptor-CaM (A-CaM) for 60 min prior to loading on the plate (donor-acceptor sample). This sub-saturating concentration of A-CaM was used to provide a readout that is sensitive to library compounds that may increase or decrease CaM binding affinity to RyR. To promote a homogenous population of RyR1 resembling that associated with myopathies, final assay conditions also included 30 nM Ca^2+ to represent resting (muscle relaxing) Ca^2+, and 5 mM oxidized glutathione (GSSG), which exaggerates the conditions associated with oxidative stress.
We acquired both FLT waveforms and fluorescence spectra, as previously described[19],[33],[34]. As previously observed, Hit effects were greatest following a 2-hour incubation with the library compounds (Supplementary Fig. 1a). As a result, all FRET results shown in Figs. 1 and 2, and Supplementary Fig. 2 are reported from the 2-hour incubation.
(§1) Necessary counter-screens to our pathological RyR1 conditions include evaluating compound effects in healthy conditions and on the cardiac isoform, RyR2. Using the same FRET assay as in HTS, we tested the dose response of key Hits from this screen and the previously HTS-identified RyR1 inhibitor, chloroxine, on healthy (5 mM GSH) and pathological (5 mM GSSG) conditions for both RyR1 in skeletal SR membranes, and RyR2 in cardiac SR membranes.
(§2) Skeletal HSR and cardiac CSR (0.4 mg/ml) membranes were independently pre-incubated with 60 nM D-FKBP, for 90 min, at 37 °C, in a solution containing 150 mM KCl, 5 mM GSH, 0.1 mg/mL BSA, 1 µg/mL Aprotinin/Leupeptin, 1 mM DTT and 20 mM PIPES (pH 7.0). To remove unbound D-FKBP, the SR membranes were spun down at 110,000 × g for 20 min, and then resuspended to 1 mg/mL (skeletal HSR) and 2 mg/mL (cardiac CSR) in binding buffer consisting of 150 mM KCl, 5 mM GSSG, 0.1 mg/mL BSA, 1μg/mL Aprotinin/Leupeptin and 20 mM PIPES, pH 7.0. These samples were then incubated with indicated [A-CaM] for 30 min at 22 °C in binding buffer containing 0.065 mM CaCl2 to give 30 nM free Ca^2+ in the presence of 1 mM EGTA (calculated by MaxChelator). This labeled SR sample was applied to the assay plates in 5 μL aliquots using a Multidrop™ Combi reagent dispenser (Thermo Scientific) with a standard-tube. An additional set of the assay plates were loaded with skeletal HSR or cardiac CSR labeled with only D-FKBP (no added A-CaM).
(§3) FLT measurements were conducted in a top-read FLT-PR designed and built by Fluorescence Innovations, Inc[33]. AF488 donor fluorescence was excited with a 473-nm microchip laser from Concepts Research Corporation (Belgium, WI), and emission was acquired with 490-nm long-pass and 517/20-nm band-pass filters (Semrock, Rochester, NY).
FLT waveforms for each well were fit based on a one-exponential decay function using least-squares minimization global-analysis software (Fluorescence Innovations, Inc.), as previously described[19],[33]. FRET efficiency (E) was determined as the fractional decrease of donor FLT (τD), due to the presence of acceptor fluorophore (τDA), using the following equation:1 E=1−τDA/τD, […]

[2] = target: T1, RyR1; assay: [3H]ryanodine binding to skeletal SR vesicles; format: biochemical, porcine; parameters: RyR1 in skeletal SR membranes, and RyR2 in cardiac SR membranes; from tissue; host or cells: porcine longissimus dorsi muscle (heavy SR vesicles); settings: 0-20 μM compound, Supplementary Fig. 5
Protocol: To evaluate the functional impact of compounds identified through our FRET-based screen, we first used [^3H]ryanodine binding assays. The level of [^3H]ryanodine binding to RyRs in SR membranes is a well-established index of the RyR channel activity. Given the role of CaM binding in our FRET readout, we investigated whether CaM influences the functional effect of the Hit compounds by carrying out [^3H]ryanodine binding assays in the absence and presence of CaM (300 nM).
Crude sarcoplasmic reticulum (CSR) vesicles were isolated from porcine longissimus dorsi muscle and porcine cardiac left ventricle tissue by differential centrifugation of homogenized tissue. HSR vesicles, which are enriched in RyR1, were isolated by fractionation of crude skeletal SR vesicles using a discontinuous sucrose gradient. All vesicles were flash-frozen and stored at −80 °C. Immediately prior to the fluorescence or [^3H]ryanodine binding studies described below, the SR vesicles were stripped of residual endogenous CaM by incubation with a peptide derived from the CaM binding domain of myosin light chain kinase, followed by sedimentation.
In 96-well plates, HSR vesicles (1 mg/ml) and cardiac CSR vesicles (3 mg/mL) were pre-incubated with 0.02% DMSO or Hit compound, with or without 300 nM CaM, for 30 min at 22 °C in a solution containing 150 mM KCl, 5 mM GSSG, 1 µg/mL Aprotinin/Leupeptin, 1 mM EGTA, and 65 µM or 1.02 mM CaCl2 (as determined by MaxChelator to yield 30 nM or 30 μM of free Ca^2+, respectively), 0.1 mg/mL BSA and 20 mM K-PIPES (pH 7.0). Non-specific and maximal [^3H]ryanodine binding to SR were separately assessed by addition of 40 µM non-radioactively labeled ryanodine or 5 mM Adenylyl-imidodiphosphate, respectively. Such control samples were each distributed over 4 wells/plate. Binding of [^3H]ryanodine (10 and 15 nM for cardiac and skeletal SR, respectively) was determined after a 3-h incubation (37 °C) and filtration through grade GF/B Glass Microfiber filters (Brandel Inc., Gaithersburg, MD, US) using a Brandel Harvester. In 4 mL of Ecolite Scintillation cocktail (MP biomedicals, Solon, OH, USA), [^3H] on filter was counted using a Beckman LS6000 scintillation counter (Fullerton, CA).

[3] = target: T2, RyR2 (Sus scrofa, UniProt A0A5G2R1W3); assay: FLT-FRET between D-FKBP and A-CaM bound to RyR2 in cardiac SR membranes (dose-response); format: binding, porcine; parameters: RyR1 in skeletal SR membranes, and RyR2 in cardiac SR membranes; from tissue; host or cells: porcine cardiac left ventricle (crude SR vesicles); settings: RyR2, dose-response, 30 nM Ca2+
Protocol: as §1, §2, §3
FLT waveforms for each well were fit based on a one-exponential decay function using least-squares minimization global-analysis software (Fluorescence Innovations, Inc.), as previously described[19],[33]. FRET efficiency (E) was determined as the fractional decrease of donor FLT (τD), due to the presence of acceptor fluorophore (τDA), using the following equation:1 E=1−τDA/τD,

[4] = target: T1, RyR1; assay: F-FKBP binding to RyR1 by co-sedimentation with skeletal SR membranes; parameters: using co-sedimentation with pig skeletal and cardiac SR membranes; from tissue; host or cells: pig skeletal muscle (heavy SR membranes); species or system pig; settings: RyR1, 10 μM Hit, 30 nM Ca2+, 5 mM GSSG or GSH
Protocol: (§4) The Hit-induced effect on FRET between D-FKBP and A-CaM most likely results from one or the combination of factors, including a shift in CaM and/or FKBP12.6 binding, and/or structure of the RyR complex that shifts the D-A distance. Under the same assay conditions as in the primary screen, we assessed the effect of 10 μM Hit on fluorescent FKBP12.6 (F-FKBP) binding to RyRs, using co-sedimentation with pig skeletal and cardiac SR membranes.
(§5) Supplementary Fig. 3 Effect of HTS Hits on F-FKBP binding to a) RyR1 in skeletal HSR membranes, and b) RyR2
(§6) in cardiac CSR membranes at 30 nM Ca2+ in the presence of 5 mM GSSG or GSH. Results are represented as individual
(§7) data points and means ± SEM, n = 4-5. *P < 0.05 by 2-sided Student’s unpaired t-test. […]

[5] = target: T2, RyR2; assay: F-FKBP binding to RyR2 by co-sedimentation with cardiac SR membranes; parameters: using co-sedimentation with pig skeletal and cardiac SR membranes; from tissue; host or cells: pig cardiac muscle (crude SR membranes); species or system pig; settings: RyR2, 10 μM Hit, 30 nM Ca2+, 5 mM GSSG or GSH
Protocol: as §4, §5, §6, §7

[6] = tested on: RyR1 Ca^2+ leak in human skinned skeletal muscle fibers; assay: t-system Ca2+ readout of RyR1 Ca2+ leak in human mechanically skinned skeletal muscle fibers; settings: 1 mM
[7] = isoform not given (figures show skeletal and cardiac SR)

T1 sequence (P16960 whole entry, canonical isoform): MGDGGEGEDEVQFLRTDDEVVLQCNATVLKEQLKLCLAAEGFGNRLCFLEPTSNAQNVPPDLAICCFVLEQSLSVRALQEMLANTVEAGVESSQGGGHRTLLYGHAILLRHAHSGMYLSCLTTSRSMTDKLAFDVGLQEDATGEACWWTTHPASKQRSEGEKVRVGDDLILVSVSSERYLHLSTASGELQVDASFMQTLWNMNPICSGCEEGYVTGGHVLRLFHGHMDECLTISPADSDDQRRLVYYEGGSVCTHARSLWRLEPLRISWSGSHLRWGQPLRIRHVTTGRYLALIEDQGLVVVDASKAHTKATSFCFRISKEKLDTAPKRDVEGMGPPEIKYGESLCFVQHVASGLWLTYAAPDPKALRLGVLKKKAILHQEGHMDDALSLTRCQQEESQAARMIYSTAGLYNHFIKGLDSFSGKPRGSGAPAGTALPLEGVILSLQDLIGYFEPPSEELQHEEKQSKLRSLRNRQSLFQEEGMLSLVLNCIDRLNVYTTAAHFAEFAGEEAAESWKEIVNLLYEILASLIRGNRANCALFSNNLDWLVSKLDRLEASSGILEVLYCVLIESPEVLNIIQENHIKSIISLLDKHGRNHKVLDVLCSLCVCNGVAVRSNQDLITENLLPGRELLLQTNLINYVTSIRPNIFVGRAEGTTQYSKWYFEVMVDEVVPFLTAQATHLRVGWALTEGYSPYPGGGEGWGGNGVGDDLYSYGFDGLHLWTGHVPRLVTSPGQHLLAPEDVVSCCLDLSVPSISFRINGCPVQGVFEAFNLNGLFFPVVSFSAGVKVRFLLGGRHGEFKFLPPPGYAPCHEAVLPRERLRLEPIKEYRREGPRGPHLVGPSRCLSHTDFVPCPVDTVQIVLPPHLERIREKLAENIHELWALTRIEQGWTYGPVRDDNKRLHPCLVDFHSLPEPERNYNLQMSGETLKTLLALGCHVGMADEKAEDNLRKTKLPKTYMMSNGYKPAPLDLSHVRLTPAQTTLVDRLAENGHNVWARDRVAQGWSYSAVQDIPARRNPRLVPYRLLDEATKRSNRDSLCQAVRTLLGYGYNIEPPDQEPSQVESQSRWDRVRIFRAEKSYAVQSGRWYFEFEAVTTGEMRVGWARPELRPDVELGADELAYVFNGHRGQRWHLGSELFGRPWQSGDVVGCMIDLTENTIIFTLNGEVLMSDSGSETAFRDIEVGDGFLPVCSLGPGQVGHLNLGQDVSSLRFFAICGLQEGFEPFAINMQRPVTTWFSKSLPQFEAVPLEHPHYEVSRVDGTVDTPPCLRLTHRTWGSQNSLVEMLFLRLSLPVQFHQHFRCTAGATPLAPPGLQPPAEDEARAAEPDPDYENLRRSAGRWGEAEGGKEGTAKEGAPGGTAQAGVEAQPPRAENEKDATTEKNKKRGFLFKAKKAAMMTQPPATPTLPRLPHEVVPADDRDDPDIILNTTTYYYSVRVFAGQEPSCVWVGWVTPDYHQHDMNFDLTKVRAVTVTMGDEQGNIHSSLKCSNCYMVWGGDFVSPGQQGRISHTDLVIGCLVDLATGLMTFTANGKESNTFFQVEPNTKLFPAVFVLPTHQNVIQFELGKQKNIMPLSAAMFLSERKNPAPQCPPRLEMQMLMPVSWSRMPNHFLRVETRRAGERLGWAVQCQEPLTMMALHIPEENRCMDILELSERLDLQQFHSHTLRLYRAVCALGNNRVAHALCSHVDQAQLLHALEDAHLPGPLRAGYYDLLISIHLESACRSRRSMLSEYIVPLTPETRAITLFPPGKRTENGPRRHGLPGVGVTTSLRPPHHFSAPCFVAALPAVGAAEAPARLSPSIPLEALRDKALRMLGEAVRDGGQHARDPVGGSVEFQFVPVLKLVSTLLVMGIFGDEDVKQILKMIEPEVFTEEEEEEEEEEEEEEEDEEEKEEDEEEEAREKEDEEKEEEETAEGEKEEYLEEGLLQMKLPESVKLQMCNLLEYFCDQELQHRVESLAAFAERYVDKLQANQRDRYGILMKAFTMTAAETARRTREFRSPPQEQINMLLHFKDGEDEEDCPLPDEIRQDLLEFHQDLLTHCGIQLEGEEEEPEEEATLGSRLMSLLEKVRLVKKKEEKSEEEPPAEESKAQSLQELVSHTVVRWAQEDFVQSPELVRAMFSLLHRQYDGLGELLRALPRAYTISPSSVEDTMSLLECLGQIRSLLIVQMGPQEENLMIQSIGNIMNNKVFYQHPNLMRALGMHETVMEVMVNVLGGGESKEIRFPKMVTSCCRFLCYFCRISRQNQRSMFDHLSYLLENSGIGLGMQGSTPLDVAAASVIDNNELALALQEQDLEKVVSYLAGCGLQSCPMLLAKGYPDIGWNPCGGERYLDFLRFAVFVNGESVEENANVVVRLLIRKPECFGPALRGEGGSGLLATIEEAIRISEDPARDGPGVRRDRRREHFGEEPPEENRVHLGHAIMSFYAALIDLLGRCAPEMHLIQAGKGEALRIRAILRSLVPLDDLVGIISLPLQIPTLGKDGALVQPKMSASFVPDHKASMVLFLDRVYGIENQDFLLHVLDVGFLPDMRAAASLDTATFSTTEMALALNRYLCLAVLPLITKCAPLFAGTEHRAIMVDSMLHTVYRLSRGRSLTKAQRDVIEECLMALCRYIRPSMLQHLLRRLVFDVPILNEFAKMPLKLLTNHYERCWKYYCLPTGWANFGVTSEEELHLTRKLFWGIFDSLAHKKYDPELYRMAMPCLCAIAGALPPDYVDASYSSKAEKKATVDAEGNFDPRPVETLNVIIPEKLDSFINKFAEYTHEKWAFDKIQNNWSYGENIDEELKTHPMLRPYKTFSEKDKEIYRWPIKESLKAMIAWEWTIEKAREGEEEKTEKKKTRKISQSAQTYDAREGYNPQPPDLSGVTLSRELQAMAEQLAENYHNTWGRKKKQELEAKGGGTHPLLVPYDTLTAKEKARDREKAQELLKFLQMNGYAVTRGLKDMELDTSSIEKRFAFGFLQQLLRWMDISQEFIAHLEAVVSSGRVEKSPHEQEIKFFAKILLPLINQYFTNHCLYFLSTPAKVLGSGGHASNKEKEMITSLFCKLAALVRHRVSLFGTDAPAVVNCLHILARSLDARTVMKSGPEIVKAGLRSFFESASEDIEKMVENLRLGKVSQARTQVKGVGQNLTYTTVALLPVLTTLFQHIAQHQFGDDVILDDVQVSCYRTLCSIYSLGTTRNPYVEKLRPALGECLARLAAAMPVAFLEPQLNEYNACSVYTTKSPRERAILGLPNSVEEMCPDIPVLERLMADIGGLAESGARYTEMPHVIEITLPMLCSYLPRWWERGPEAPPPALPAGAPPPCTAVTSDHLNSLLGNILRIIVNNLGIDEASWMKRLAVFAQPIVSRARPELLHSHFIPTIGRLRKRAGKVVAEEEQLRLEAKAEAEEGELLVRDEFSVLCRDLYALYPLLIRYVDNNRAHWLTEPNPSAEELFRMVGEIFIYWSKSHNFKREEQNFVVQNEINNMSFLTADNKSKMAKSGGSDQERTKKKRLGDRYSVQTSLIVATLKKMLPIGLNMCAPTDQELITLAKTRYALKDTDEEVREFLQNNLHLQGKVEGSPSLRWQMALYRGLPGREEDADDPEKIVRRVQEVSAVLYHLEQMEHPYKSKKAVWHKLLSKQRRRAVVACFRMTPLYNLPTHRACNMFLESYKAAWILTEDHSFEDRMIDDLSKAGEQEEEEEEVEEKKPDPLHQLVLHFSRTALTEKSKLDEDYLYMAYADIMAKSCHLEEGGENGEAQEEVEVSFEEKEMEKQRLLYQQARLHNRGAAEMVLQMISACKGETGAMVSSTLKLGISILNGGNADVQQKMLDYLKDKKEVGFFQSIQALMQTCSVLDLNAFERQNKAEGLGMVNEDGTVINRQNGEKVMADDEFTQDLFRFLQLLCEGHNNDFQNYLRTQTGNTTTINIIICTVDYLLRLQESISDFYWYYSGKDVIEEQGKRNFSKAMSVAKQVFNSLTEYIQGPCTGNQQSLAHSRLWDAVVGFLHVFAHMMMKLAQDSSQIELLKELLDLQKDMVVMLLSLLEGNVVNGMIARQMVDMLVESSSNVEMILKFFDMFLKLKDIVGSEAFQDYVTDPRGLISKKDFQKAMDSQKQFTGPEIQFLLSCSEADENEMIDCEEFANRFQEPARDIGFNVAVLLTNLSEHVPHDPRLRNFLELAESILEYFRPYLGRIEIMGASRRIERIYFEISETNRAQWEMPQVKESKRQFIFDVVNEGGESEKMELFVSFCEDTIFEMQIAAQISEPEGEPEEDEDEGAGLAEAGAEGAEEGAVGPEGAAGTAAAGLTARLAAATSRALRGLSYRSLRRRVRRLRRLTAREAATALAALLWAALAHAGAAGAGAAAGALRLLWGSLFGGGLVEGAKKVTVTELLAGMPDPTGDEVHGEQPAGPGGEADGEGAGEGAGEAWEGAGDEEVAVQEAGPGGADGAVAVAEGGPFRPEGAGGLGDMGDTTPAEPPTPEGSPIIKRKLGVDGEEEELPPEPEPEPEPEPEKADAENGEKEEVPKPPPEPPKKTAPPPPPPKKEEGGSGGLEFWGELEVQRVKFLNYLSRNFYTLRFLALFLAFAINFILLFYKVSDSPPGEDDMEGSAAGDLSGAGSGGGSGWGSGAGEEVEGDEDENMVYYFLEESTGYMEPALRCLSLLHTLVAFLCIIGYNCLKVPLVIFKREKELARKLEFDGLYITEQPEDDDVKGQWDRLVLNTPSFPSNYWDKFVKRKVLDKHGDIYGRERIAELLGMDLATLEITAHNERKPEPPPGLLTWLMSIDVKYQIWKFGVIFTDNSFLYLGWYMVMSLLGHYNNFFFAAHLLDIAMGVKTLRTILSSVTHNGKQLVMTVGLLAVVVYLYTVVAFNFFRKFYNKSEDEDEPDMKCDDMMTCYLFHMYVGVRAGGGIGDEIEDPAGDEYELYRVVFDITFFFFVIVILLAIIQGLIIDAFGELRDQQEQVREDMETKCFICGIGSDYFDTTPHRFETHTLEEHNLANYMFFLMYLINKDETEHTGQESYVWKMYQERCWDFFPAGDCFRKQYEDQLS

Hit in primary FLT-FRET HTS of LOPAC (FRET altered by > 4 SD vs DMSO) ([1]; 30 nM Ca2+)	Compound	Influence of GSSG vs GSH on the FRET dose-response effect [1, 7]	also measured
observe	C[C@H](O)[C@H](O)[C@H]1CNc2nc(N)[nH]c(=O)c2N1 [(6 R)-BH4]	–	–
observe	Reactive Blue	–	–
observe	CN=c1nc(-c2ccccc2)n(-c2ccccc2)s1 [SCH-202676]	more strongly decreased FRET in the presence of GSSG vs. GSH	–
identified	CO[C@H]1C[C@@H]2CC[C@@H](C)[C@@](O)(O2)C(=O)C(=O)N2CCCC[C@H]2C(=O)O[C@H]([C@H](C)C[C@@H]2CC[C@@H](OC(=O)C(C)(CO)CO)[C@H](OC)C2)CC(=O)[C@H](C)/C=C(\C)[C@@H](O)[C@@H](OC)C(=O)[C@H](C)C[C@H](C)/C=C/C=C/C=C/1C [temsirolimus]	–	FRET reduction [3]: 68–70%; Decrease of F-FKBP binding [4]: 20%; FRET reduction ([1]; RyR1, dose-response, 30 nM Ca2+): ~ 10%; Decrease of F-FKBP binding [5]: 70%
–	Oc1ccc2ccccc2c1SSc1c(O)ccc2ccccc12 [IPA-3]	more strongly decreased FRET in the presence of GSSG vs. GSH	–
–	Nc1ccc(-c2nc3ccc(-c4nc5ccc(N)cc5[nH]4)cc3[nH]2)cc1 [Ro 90–7501]	very similar FRET dose-response effects with GSSG or GSH	Effect on FRET ([1]; micromolar [compound]): decreased; Effect on FRET ([1]; sub-micromolar [compound]): increased; Effect on [3H]ryanodine binding [2]: inhibited
–	CCCCNc1ccc(C(=O)OCCN(C)C)cc1 [Tetracaine, tetracaine]	–	RyR inhibition (reference level of leak assay) [6]: full RyR inhibition
–	C=CC[C@@H]1/C=C(\C)C[C@H](C)C[C@H](OC)[C@H]2O[C@@](O)(C(=O)C(=O)N3CCCC[C@H]3C(=O)O[C@H](/C(C)=C/[C@@H]3CC[C@@H](O)[C@H](OC)C3)[C@H](C)[C@@H](O)CC1=O)[C@H](C)C[C@@H]2OC [tacrolimus]	–	Decrease of F-FKBP binding [4]: 20%; Decrease of F-FKBP binding [5]: 70%
identified	CCN(CC)C(=S)SSC(=S)N(CC)CC [disulfiram]	more strongly decreased FRET in the presence of GSSG vs. GSH	–

Compound	Hit in primary FLT-FRET HTS of LOPAC (FRET altered by > 4 SD vs DMSO) ([1]; 30 nM Ca2+)	Influence of GSSG vs GSH on the FRET dose-response effect [1, 7]	also measured
O=C(O)C1=CC(=C(c2ccc(O)c(C(=O)O)c2)c2ccc(O)c(C(=O)O)c2)C=CC1=O [aurintricarboxylic acid]	observe	–	Compound concentration at which FRET is abolished ([1]; FRET dose-response, isoform not given (figures show skeletal and cardiac SR)): ≥ 10 µM; Effect on [3H]ryanodine binding [2]: potent inhibitor
N.N.[Cl][Pt][Cl] [cisplatin]	decrease in FRET	more strongly decreased FRET in the presence of GSSG vs. GSH	–
O=C(Nc1cccc(C(=O)Nc2ccc(S(=O)(=O)O)c3cc(S(=O)(=O)O)cc(S(=O)(=O)O)c23)c1)Nc1cccc(C(=O)Nc2ccc(S(=O)(=O)O)c3cc(S(=O)(=O)O)cc(S(=O)(=O)O)c23)c1 [NF023]	identified	–	–
